{
  "source": "PubChem BioAssay AID1259420",
  "about": "(Broad Institute, 2018)",
  "note": "Where “and” joins values, the source holds several entries; their conditions need not be identical. Identical values can stand only once. Records with an inconclusive call do not appear. Calls of active or inactive are those of the source. No rule for the calls is given here.",
  "data": [
    {"test_system": "Toxoplasma gondii growth in host cells, no IFN-gamma", "assay": "T. gondii intracellular growth, IFN-gamma absent, dose response, cell-based (AID 1259420);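 also: host cells were HeLa; final incubation lasted 72 hours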", "values": [
      {"smiles": "O=C(Cc1cccnc1)N1CC(=O)N2[C@H](CO)[C@@H](c3ccc(C#CC4CCCCC4)cc3)[C@H]2C1", "AC50": "> 20 µM (inactive)"},
      {"smiles": "OC[C@@H]1Nc2ccc(-c3cccc(F)c3)cc2[C@H]2[C@@H]1CCN2Cc1ccc(F)cc1", "AC50": "> 20 µM (inactive)"},
      {"smiles": "CCc1c2c(nc3ccc(OC(=O)N4CCC(N5CCCCC5)CC4)cc13)-c1cc3c(c(=O)n1C2)COC(=O)[C@]3(O)CC", "AC50": "24.7 µM"},
      {"smiles": "CCN(CC)CCO[C@H]1CC[C@@]2(C)C(=CC[C@@H]3[C@@H]2CC[C@]2(C)C(=O)CC[C@@H]32)C1", "AC50": "> 39 µM (inactive)"},
      {"smiles": "O=C(NC1CCC12CCN(Cc1ccoc1)CC2)c1cnccn1", "note": "(stereo not drawn)", "AC50": "> 39 µM (inactive)"},
      {"smiles": "CO[C@H]1CCN(Cc2ccoc2)[C@H]2CN(Cc3ccncc3)C[C@@H]12", "AC50": "> 39 µM (inactive)"},
      {"smiles": "O=C(c1cccn2c(-c3ccc(F)cc3)nnc12)N1CCC(O)(c2ccc(Cl)cc2)CC1", "AC50": "> 39 µM (inactive)"},
      {"smiles": "c1cnc(N2CCC(Oc3cnccn3)CC2)nc1", "AC50": "15.6 µM"},
      {"smiles": "O=C(Nc1cccc(F)c1)C1CC12CCN(S(=O)(=O)c1ccccc1)C2", "note": "(stereo not drawn)", "AC50": "35.5 µM"},
      {"smiles": "CCCNC(=O)N1C[C@@H]2N[C@H](C1)C2c1ccc(-c2ccc(OC)cc2)cc1", "note": "(stereo partly drawn)", "AC50": "14.2 µM"},
      {"smiles": "c1csc(-c2cc(NC3CCNCC3)nc3[nH]ccc23)n1", "AC50": "37 µM"},
      {"smiles": "O=C(C[C@@H]1CC[C@@H]2[C@H](COC[C@@H](O)CN2Cc2ccc(Oc3ccccc3)cc2)O1)N1CCN(c2ccccc2)CC1", "AC50": "16.5 µM"},
      {"smiles": "Cc1ccccc1-c1ccc(C2[C@@H]3CN(C(=O)c4ccc(F)cc4)C[C@H]2N3)cc1", "note": "(stereo partly drawn)", "AC50": "> 42 µM (inactive)"},
      {"smiles": "O=C(C1CCC1)N1C[C@@H]2N[C@H](C1)C2c1ccc(/C=C/c2ccccc2)cc1", "note": "(stereo partly drawn)", "AC50": "12.7 µM and 11.5 µM"},
      {"smiles": "Cc1ccc(S(=O)(=O)Nc2ccc3c(c2)C(=O)N([C@@H](C)CO)C[C@@H](C)[C@H](CN(C)Cc2ccc(C(F)(F)F)cc2)O3)cc1", "AC50": "> 20 µM (inactive)"},
      {"smiles": "COc1cccc(NC(=O)N2CC(=O)N3[C@H](CO)[C@@H](c4ccc(C#CCC5CCCC5)cc4)[C@@H]3C2)c1", "AC50": "14.4 µM and 13.4 µM"},
      {"smiles": "CCCC#Cc1ccc([C@@H]2[C@H]3CN(C(=O)Nc4cccc(F)c4)CC(=O)N3[C@H]2CO)cc1", "AC50": "29.4 µM and 14.9 µM"},
      {"smiles": "CN(C)C(=O)c1cccc(-c2ccc3c(c2)[C@H]2[C@H](CCN2C(=O)Cc2ccccc2)[C@H](CO)N3)c1", "AC50": "16.6 µM"},
      {"smiles": "CCCNC(=O)N1[C@@H](C#N)[C@H](c2ccc(C#Cc3cccc(F)c3)cc2)[C@@H]1CO", "AC50": "19.3 µM"},
      {"smiles": "O=C(Nc1ccc(Cl)cc1)N1[C@@H]2CNC[C@H]1C2c1ccc(-c2ccccc2)cc1", "note": "(stereo partly drawn)", "AC50": "6.4 µM"},
      {"smiles": "COc1ccc(-c2nc(Nc3ccc(CN4CCC(C)CC4)cc3)c3ccccc3n2)cc1", "AC50": "12.6 µM"},
      {"smiles": "COc1cc2nc(N3CCN(C(=O)c4ccco4)CC3)nc(N)c2cc1OC", "AC50": "19 µM"},
      {"smiles": "O=C(c1cnccn1)N1CC(=O)N2[C@H](CO)[C@@H](c3ccc(-c4cccc(F)c4)cc3)[C@@H]2C1", "AC50": "20 µM"},
      {"smiles": "O=C(NC1CCCCC1)N1C[C@@H]2N[C@H](C1)C2c1ccc(-c2ccc(F)cc2)cc1", "note": "(stereo partly drawn)", "AC50": "23 µM"},
      {"smiles": "CN(Cc1ccccn1)C(=O)C1=NOC2(CCN(S(=O)(=O)c3ccc(F)cc3)C2)C1", "note": "(stereo not drawn)", "AC50": "> 39 µM (inactive)"},
      {"smiles": "O=C(c1ccc(F)cc1)N1CC(=O)N2[C@H](C1)[C@H](c1ccc(C#CCC3CCCC3)cc1)[C@@H]2CO", "AC50": "16.9 µM"},
      {"smiles": "CC(C)CC#Cc1ccc([C@@H]2[C@@H](CO)N3CCCCN(C(=O)Nc4ccccc4)C[C@@H]23)cc1", "AC50": "23.7 µM"},
      {"smiles": "COc1ccc(-c2nc3c(s2)CN(S(=O)(=O)c2cc(C)cc(C)c2)CC3)cc1", "AC50": "5.99 µM"},
      {"smiles": "COc1ccccc1-c1ccc2c(c1)[C@H]1[C@H](CCN1C(=O)C1CCC1)[C@H](CO)N2", "AC50": "13 µM"},
      {"smiles": "COc1ccc(C#Cc2ccc([C@@H]3[C@@H](CO)N4C(=O)CN(C(=O)NC(C)C)C[C@@H]34)cc2)cc1", "AC50": "> 39 µM (inactive)"},
      {"smiles": "Cc1cnn(C(C)C(=O)N2CCc3[nH]nc(-c4ccc(F)c(F)c4)c3C2)c1", "note": "(stereo not drawn)", "AC50": "> 39 µM (inactive)"},
      {"smiles": "COc1ccc(NC(=O)N2CC[C@@H]3[C@H]2c2cc(C4=CCCCC4)ccc2N(C)[C@H]3CO)cc1", "AC50": "17.8 µM"},
      {"smiles": "CC(C)C#Cc1ccc([C@H]2[C@@H](CO)N3C(=O)CN(S(=O)(=O)c4ccccc4)C[C@H]23)cc1", "AC50": "> 39 µM (inactive)"}
    ]}
  ]
}
